Data taken from the NIST ThermoML archive (doi:10.1021/je400803f).

Assay: xn = mol fraction of the nth substance listed
Conditions: 101 kPa, Liquid, Vibrating tube method

CCCC[N+]1(C)CCCC1.FC(F)(F)C(F)(F)[P-](F)(F)(F)(C(F)(F)C(F)(F)F)C(F)(F)C(F)(F)F + CC(=O)N(C)C
mass density [kg/m3]
Conditions | 293.15 K | 298.15 K | 303.15 K | 308.15 K | 313.15 K | 318.15 K | 323.15 K
x1 = 0.0182 | 983.51 | 978.8 | 974.05 | 969.23 | 964.38 | 959.48 | 954.43
x1 = 0.0658 | 1076.12 | 1071.23 | 1066.29 | 1061.3 | 1056.27 | 1051.2 | 1046.01
x1 = 0.099 | 1128.83 | 1123.84 | 1118.81 | 1113.75 | 1108.63 | 1103.46 | 1098.22
x1 = 0.1925 | 1243.41 | 1238.24 | 1233.05 | 1227.86 | 1222.59 | 1217.27 | 1211.86
x1 = 0.2995 | 1334.81 | 1329.56 | 1324.29 | 1318.96 | 1313.61 | 1308.22 | 1302.76
x1 = 0.4032 | 1399.72 | 1394.36 | 1389.05 | 1383.7 | 1378.3 | 1372.86 | 1367.34
x1 = 0.5012 | 1446.97 | 1441.77 | 1436.59 | 1431.01 | 1425.38 | 1420.2 | 1414.53
x1 = 0.6048 | 1487.12 | 1482 | 1476.86 | 1470.97 | 1465.48 | 1460.22 | 1454.65
x1 = 0.7078 | 1520.04 | 1514.92 | 1509.86 | 1504.04 | 1498.52 | 1492.71 | 1487.58
x1 = 0.806 | 1546.68 | 1541.65 | 1536.23 | 1530.12 | 1524.91 | 1519.13 | 1513.85
x1 = 0.8469 | 1556.58 | 1551.46 | 1546.01 | 1539.99 | 1534.65 | 1528.99 | 1523.64
x1 = 0.9176 | 1572.41 | 1567.01 | 1561.51 | 1555.89 | 1550.24 | 1544.79 | 1539.24
